Data: ChEMBL document CHEMBL4270501, “Indole-fused azepines and analogues as anticancer lead molecules: Privileged findings and future directions” (Eur J Med Chem, 2017)
pIC50: −log10 of the molar value.

System: MCF7
Assay: Growth inhibition of human MCF7 cells by MTT assay
Assay type: functional, cell-based

pIC50	SMILES
6.22	COc1ccc2c3c([nH]c2c1)-c1ccccc1NC(=O)C3
5.92	O=C1Cc2c([nH]c3ccccc23)-c2ccccc2N1 [PAULLONE]
